Values belong to the compound of their own block, whether it stands above or below them. Non-standard residues stand in square brackets, D forms with d. *: point of attachment. Arg(NO2) = N=C(NCCC[C@H](N)C(=O)O)N[N+](=O)[O-]; OiPr = CC(C)O*
How the values were obtained:
[1] = Stability of the pure HPDs (dry solid) at 25° C./RH 60%; type: physicochemical; conditions: for Purity at 3 month / Purity at 6 month / Purity at 9 month / Purity at 12 month / Purity at 18 month / Purity at 24 month / Purity at Day 0: pure HPD at 25° C./RH 60%; for Stability of the pure powder: room temperature (25° C./RH 60%); for Purity: pure HPD, 25° C./RH 60%
[2] = Effect of pH value on the stability of the solution (purity); type: physicochemical; conditions: for pH at which the solution is stable: 5% solution in 25% ethanol at 25° C.; for Time the solution can be stored at room temperature: 5% solution in 25% ethanol, pH 3-6; for Purity(%) from day 0-28: 25° C.
[3] = Effect of temperature (and pH) on the stability of the solution (purity); type: physicochemical; conditions: for Purity (%) at day 30 (60° C.) / Purity (%) at day 90 (60° C.) / Purity (%) at day 180 (60° C.) / Purity (%) at day 360 (60° C.) / Purity(%) at day 0 / Purity(%) at day 30 (5° C.) / Purity(%) at day 30 (25° C.) / Purity(%) at day 30 (40° C.) / Purity(%) at day 90 (5° C.) / Purity(%) at day 90 (25° C.) / Purity(%) at day 90 (40° C.) / Purity(%) at day 180 (5° C.) / Purity(%) at day 180 (25° C.) / Purity(%) at day 180 (40° C.) / Purity(%) at day 360 (5° C.) / Purity(%) at day 360 (25° C.) / Purity(%) at day 360 (40° C.): 5% solution with 1 equivalent sodium acetate in 25% ethanol, pH 4.49-4.51; for Stability of the solution at a temperature higher than 40° C. and a pH lower than 3 or greater than 6: 7% solution in water
[4] = Effect of concentration on the stability of the solution (purity over time); conditions: in water at 25° C.
[5] = day 28, pH 1.0, 7% solution in water
[6] = day 28, pH 2.0, 7% solution in water
[7] = day 28, pH 3.0, 7% solution in water
[8] = day 28, pH 3.7, 7% solution in water
[9] = day 28, pH 5.0, 7% solution in water
[10] = day 28, pH 6.0, 7% solution in water
[11] = day 28, pH 7.0, 7% solution in water
[12] = day 28, pH 8.0, 7% solution in water

Purity at 3 month [1]: 99.0 ± 0.2 | Purity at 6 month [1]: 99.0 ± 0.2 | Purity at 9 month [1]: 98.8 ± 0.2 | Purity at 12 month [1]: 98.7 ± 0.0 | Purity at 18 month [1]: 98.6 ± 0.0 | Purity at 24 month [1]: 98.5 ± 0.2 | Purity at Day 0 [1]: 99.1 ± 0.2 | Stability of the pure powder [1]: very stable | pH at which the solution is stable [2]: 3-6 | Time the solution can be stored at room temperature [2]: about 1 year | Purity (%) at day 30 (60° C.) [3]: 33.2 ± 0.3% | Purity (%) at day 90 (60° C.) [3]: 0% | Purity (%) at day 180 (60° C.) [3]: 0% | Purity (%) at day 360 (60° C.) [3]: 0% | Purity(%) at day 0 [3]: 99.1 ± 0.1% | Purity(%) at day 30 (5° C.) [3]: 98.9 ± 0.2% | Purity(%) at day 30 (25° C.) [3]: 97.9 ± 0.3% | Purity(%) at day 30 (40° C.) [3]: 71.9 ± 0.2% | Purity(%) at day 90 (5° C.) [3]: 98.6 ± 0.3% | Purity(%) at day 90 (25° C.) [3]: 97.2 ± 0.3% | Purity(%) at day 90 (40° C.) [3]: 34.2 ± 0.3% | Purity(%) at day 180 (5° C.) [3]: 97.9 ± 0.2% | Purity(%) at day 180 (25° C.) [3]: 95.2 ± 0.3% | Purity(%) at day 180 (40° C.) [3]: 13.5 ± 0.3% | Purity(%) at day 360 (5° C.) [3]: 97.4 ± 0.3% | Purity(%) at day 360 (25° C.) [3]: 92.5 ± 0.4% | Purity(%) at day 360 (40° C.) [3]: 0%
Compound: H-Val-Pro-Asp[OCH(CH3)2]-Pro-Arg(NO2)—OCH(CH3)2•HCl [T-3]

Purity ([1]; 3 month, listed as C-1-1): 99.9 ± 0.2 | Purity ([1]; 6 month, listed as C-1-1): 99.8 ± 0.2 | Purity ([1]; 9 month, listed as C-1-1): 99.8 ± 0.3 | Purity ([1]; 12 month): 98.1 ± 0.3 | Purity ([1]; 12 month, listed as C-1-1): 99.5 ± 0.3 | Purity ([1]; 18 month): 98.0 ± 0.1 | Purity ([1]; 18 month, listed as C-1-1): 99.8 ± 0.3 | Purity ([1]; 24 month): 97.9 ± 0.3 | Purity ([1]; 24 month, listed as C-1-1): 99.7 ± 0.4 | Purity ([1]; Day 0, listed as C-1-1): 99.8 ± 0.1 | Purity(%) from day 0-28 ([2]; day 28, pH 1.0, 7% in 25% ethanol): 69.1 ± 0.2% | Purity(%) from day 0-28 ([2]; day 28, pH 2.0, 7% in 25% ethanol): 80.8 ± 0.4% | Purity(%) from day 0-28 ([2]; day 28, pH 3.0, 7% in 25% ethanol): 92.5 ± 0.3% | Purity(%) from day 0-28 ([2]; day 28, pH 3.7, 7% in 25% ethanol): 97.2 ± 0.4% | Purity(%) from day 0-28 ([2]; day 28, pH 4.6, 7% in 25% ethanol): 97.3 ± 0.3% | Purity(%) from day 0-28 ([2]; day 28, pH 5.0, 7% in 25% ethanol): 94.3 ± 0.2% | Purity(%) from day 0-28 ([2]; day 28, pH 6.0, 7% in 25% ethanol): 89.9 ± 0.3% | Purity(%) from day 0-28 ([2]; day 28, pH 7.0, 7% in 25% ethanol): 52.8 ± 0.4% | Purity(%) from day 0-28 ([2]; day 28, pH 8.0, 7% in 25% ethanol): 35.3 ± 0.3% | Stability of the solution at a temperature higher than 40° C. and a pH lower than 3 or greater than 6 [3]: not stable
Compound: CCN(CC)CCOC(=O)C(C)c1ccc(CC(C)C)cc1.Cl (racemic) [C-4, 2-(diethylamino)ethyl (R,S)-2-(p-isobutylphenyl)propionate•HCl salt]

Purity ([1]; 12 month): 98.1 ± 0.3 | Purity ([1]; 18 month): 97.9 ± 0.4 | Purity ([1]; 24 month): 97.8 ± 0.3 | Purity(%) from day 0-28 [2, 5]: 68.2 ± 0.4% | Purity(%) from day 0-28 [2, 6]: 80.1 ± 0.3% | Purity(%) from day 0-28 [2, 7]: 90.3 ± 0.3% | Purity(%) from day 0-28 [2, 8]: 96.8 ± 0.2% | Purity(%) from day 0-28 ([2]; day 28, pH 4.0, 7% solution in water): 97.1 ± 0.2% | Purity(%) from day 0-28 ([2]; day 28, pH 4.3, 7% solution in water): 97.1 ± 0.3% | Purity(%) from day 0-28 ([2]; day 28, pH 4.6, 7% solution in water): 97.0 ± 0.3% | Purity(%) from day 0-28 [2, 9]: 96.0 ± 0.3% | Purity(%) from day 0-28 [2, 10]: 88.4 ± 0.3% | Purity(%) from day 0-28 [2, 11]: 55.8 ± 0.4% | Purity(%) from day 0-28 [2, 12]: 35.8 ± 0.5%
Compound: CCN(CC)CCOC(=O)[C@H](C)c1ccc2cc(OC)ccc2c1.O=C(O)CC(O)(CC(=O)O)C(=O)O (racemic) [C-3, 2-(diethylamino)ethyl (R,S)-2-(6-methoxy-2-naphthyl) propionate•citric acid salt]

Purity ([1]; 3 month, listed as A-1-1): 98.6 ± 0.1 | Purity ([1]; 6 month, listed as A-1-1): 98.8 ± 0.1 | Purity ([1]; Day 0, listed as A-1-1): 98.8 ± 0.2 | Purity at Day 3 ([4]; 0.01 wt %): 79.6% | Purity at Day 7 ([4]; 0.01 wt %): 73.4% | Purity at Day 14 ([4]; 0.01 wt %): 68.7% | Purity at Day 21 ([4]; 0.01 wt %): 64.5% | Purity at Day 28 ([4]; 0.01 wt %): 61.4% | Purity at hr 24 ([4]; 0.01 wt %): 91.7% | Purity at Day 7 ([4]; 0.1 wt %): 97.2% | Purity at Day 14 ([4]; 0.1 wt %): 96.1% | Purity at Day 21 ([4]; 0.1 wt %): 95.4% | Purity at Day 28 ([4]; 0.1 wt %): 94.1% | Purity at Day 14 ([4]; 1 wt %): 97.4% | Purity at Day 21 ([4]; 1 wt %): 96.9% | Purity at Day 28 ([4]; 1 wt %): 96.4% | Purity at Day 21 ([4]; 3 wt %): 97.6% | Purity at Day 28 ([4]; 3 wt %): 97.1% | Purity at Day 28 ([4]; 5 wt %): 97.5% | Purity at Day 21 ([4]; 8 wt %): 97.5% | Purity at Day 28 ([4]; 8 wt %): 97.6% | Purity at Day 21 ([4]; 10 wt %): 97.4% | Purity at Day 28 ([4]; 10 wt %): 97.6% | Purity at Day 21 ([4]; 15 wt %): 97.5% | Purity at Day 28 ([4]; 15 wt %): 97.6% | Purity at Day 21 ([4]; 20 wt %): 97.4% | Purity at Day 28 ([4]; 20 wt %): 97.6% | Stability when the concentration is 0.1% or lower [4]: not stable | Purity(%) from day 0-28 [2, 5]: 68.9 ± 0.3% | Purity(%) from day 0-28 [2, 6]: 80.9 ± 0.4% | Purity(%) from day 0-28 [2, 7]: 90.3 ± 0.3% | Purity(%) from day 0-28 [2, 8]: 97.2 ± 0.2% | Purity(%) from day 0-28 [2, 9]: 96.3 ± 0.2% | Purity(%) from day 0-28 [2, 10]: 89.9 ± 0.3% | Purity(%) from day 0-28 [2, 11]: 65.8 ± 0.3% | Purity(%) from day 0-28 [2, 12]: 45.8 ± 0.4% | Stability of the solution at a temperature higher than 40° C. and a pH lower than 3 or greater than 6 [3]: not stable
Compound: CCN(CC)CCOC(=O)[C@H](C)c1ccc2cc(OC)ccc2c1.Cl (racemic) [2-(diethylamino)ethyl (R,S)-2-(6-methoxy-2-naphthyl)propionate•HCl]

Compound: H-Val-Pro-Gly-Pro-Arg(NO2)—OCH(CH3)2•HCl (H-VPGP[Arg(NO2)]-OiPr; also: HCl salt)
Purity at 3 month ([1]; in % (unit assumed)): 98.8 ± 0.2 | Purity at 6 month ([1]; in % (unit assumed)): 98.6 ± 0.2 | Purity at 9 month ([1]; in % (unit assumed)): 98.5 ± 0.2 | Purity at 12 month ([1]; in % (unit assumed)): 98.4 ± 0.3 | Purity at 18 month ([1]; in % (unit assumed)): 98.2 ± 0.3 | Purity at 24 month ([1]; in % (unit assumed)): 98.2 ± 0.2 | Purity at Day 0 ([1]; in % (unit assumed)): 98.7 ± 0.2 | Stability of the pure powder [1]: very stable | pH at which the solution is stable [2]: 3-6 | Time the solution can be stored at room temperature [2]: about 1 year | Purity (%) at day 30 (60° C.) [3]: 32.4 ± 0.4% | Purity (%) at day 90 (60° C.) [3]: 0% | Purity (%) at day 180 (60° C.) [3]: 0% | Purity (%) at day 360 (60° C.) [3]: 0% | Purity(%) at day 0 [3]: 98.7 ± 0.2% | Purity(%) at day 30 (5° C.) [3]: 98.5 ± 0.3% | Purity(%) at day 30 (25° C.) [3]: 97.7 ± 0.2% | Purity(%) at day 30 (40° C.) [3]: 71.6 ± 0.2% | Purity(%) at day 90 (5° C.) [3]: 98.4 ± 0.3% | Purity(%) at day 90 (25° C.) [3]: 97.0 ± 0.3% | Purity(%) at day 90 (40° C.) [3]: 32.7 ± 0.3% | Purity(%) at day 180 (5° C.) [3]: 97.8 ± 0.3% | Purity(%) at day 180 (25° C.) [3]: 95.1 ± 0.3% | Purity(%) at day 180 (40° C.) [3]: 12.2 ± 0.3% | Purity(%) at day 360 (5° C.) [3]: 97.3 ± 0.3% | Purity(%) at day 360 (25° C.) [3]: 92.2 ± 0.2% | Purity(%) at day 360 (40° C.) [3]: 0%

— patent US20230157952A1, “METHOD FOR IMPROVING THE STABILITY OF A PHARMACEUTICAL COMPOSITION COMPRISING A HIGH PENETRATION DRUG, AND THE PHARMACEUTICAL COMPOSITION OBTAINED THEREFROM” (Techfields Inc., priority 2020, published 2023)
